“Also recorded” adds a separate entry of the source.
Key:
[1] = biological target: T1, SMARCA4 (Homo sapiens, UniProt P51532); assay: DSF assay (Protein Thermal Shift Dye Kit), SMARCA4 binding; details: 30 min incubation, indicated ratios, FIG. 1A
Experimental: (§1) Recombinant SMARCA4 and SMARCA2 proteins were incubated with S31 at indicated ratios. After 30 min of incubation, DSF assay was performed using Protein Thermal Shift™ Dye Kit (ThermoFisher™) according to manufacture instructions (FIG. 1A).

[2] = biological target: T2, SMARCA2 (Homo sapiens, UniProt P51531); assay: DSF assay (Protein Thermal Shift Dye Kit), SMARCA2 binding; details: 30 min incubation, indicated ratios, FIG. 1A
Experimental: as §1

[3] = biological target: His-CRBN (Homo sapiens, UniProt Q96SW2); assay: CRBN binding, biotin-pomalidomide probe with streptavidin donor and nickel chelate acceptor beads; details: 50 nM His-CRBN, 1 hr, FIG. 1B
Experimental: 50 nM of His-CRBN was incubated with biotinylated probe (biotin-pomalidomide), streptavidin donor beads (PerkinElmer®), nickel chelate acceptor beads (PerkinElmer®) and compounds (S31, PFI3 or pomalidomide at indicated concentrations) for 1 hr. After incubation, […] was read according to manufacture instructions (FIG. 1B).

[4] = tested on: cleaved PARP; assay: Cleaved PARP expression (apoptosis); format: cell-based; details: after 6 hours of treatment
Experimental: (§2) MOLM13 WT and CRBN KO cells were treated with 1 μM of S31 at indicated time points. Cell lysates were harvested, and proteins were extracted using RIPA buffer.
Chemical inhibition of targeted proteins offered the opportunity to understand the function and therapeutic potential of the targets with temporal control. There are several small molecule inhibitors that have been reported to target SMARCA2/4. […] Therefore, PROTACs, bridging small molecules that recruit the target protein into proximity with the E3 ligase system to initiate proteasomal degradation of targeted proteins inside the cells, were developed to target SMARCA2/4. The strategy has recently been described and utilized for the depletion of multiple targets including BRD4, FKBP12, ERR, RIPK2 and BRD9. Compound (1) (S31) is a molecule that contains phthalimide (thalidomide, lenalidomide and pomalidomide, also known as IMiDs®), a CRBN binder, and a SMARCA4/2 binder that are linked via an alkyl linker. The PROTAC dimerized targeted proteins and CRBN, and induced polyubiquitylation followed by proteasomal degradation of SMARCA4/2.

[5] = tested on: panel of leukemia cell lines; assay: Growth inhibition in a panel of leukemia cell lines (ATPlite); format: cell-based; details: 72 hr, FIG. 3
Experimental: S31 was treated in a panel of leukemia cell lines with 10 doses ranging from 10 μM to 1 nM. After 72 hr of treatment, growth inhibition was determined by ATPlite™ (PerkinElmer®). IC50 was calculated by GraphPad Prism® 7 (FIG. 3).

[6] = tested on: MLL-AF9 targets; assay: RNA sequencing of MLL-AF9 targets (heatmap, GSEA) in MOLM13 cells; format: cell-based; details: EPZ5676 1.25 μM 4 days, S31 1 μM 6-10 hr, FIG. 11A
Experimental: MOLM13 cells were primed with 1.25 μM of EPZ5676 or DMSO for 4 days. At day 5, additional S31 (1 μM) or DMSO was added for another 6-10 hr. Cells were harvested and subjected to RNA isolation. Isolated RNA was sent to Novogene (USA) for RNA sequencing. Expression values of MLL-AF9 targets from each treatment group were plotted in heatmap (Morpheus) (FIG. 11A). GSEA analysis was performed by GSEA software 4.1.0 (Broad Institute) (FIG. 11B).
The molecular interdependency between DOT1L inhibition and SMARCA4/2 inactivation was explored using RNA-seq in MOLM13 cells treated with DMSO. S31. EPZ5676 and S31+EPZ5676. Persistent expression of MLL fusion targets maintained the leukemic transformation as a stem cell-like state. […] To define a detailed regulatory pattern of the effects of SMARCA4/2 and DOT1L on these genes, the RNA-seq results were plotted in a heatmap and identified one subset of genes are of particular interest. […] However, the combination of the two induced significant reduction of genes such as MYB and FLT3, which are critical for MLLr leukemia proliferation. S31 sensitized such MLL-AF9) targets to EPZ5676. This was confirmed via Q-PCR.

[7] = biological target: T1, SMARCA4; assay: SMARCA4 degradation by Western Blotting in MOLM13 cells; format: cell-based; design: endogenous in cells; host or cells: MOLM13 WT and CRBN KO cells; details: MOLM13 WT and CRBN KO cells, 1 μM, indicated time points, FIG. 2
Experimental: as §2

[8] = biological target: T2, SMARCA2; assay: SMARCA2 degradation by Western Blotting in MOLM13 cells; format: cell-based; design: endogenous in cells; host or cells: MOLM13 WT and CRBN KO cells; details: MOLM13 WT and CRBN KO cells, 1 μM, indicated time points, FIG. 2
Experimental: as §2

[9] = tested on: MLL rearranged cells; details: cited from earlier work
[10] = tested on: MLLr acute myeloid leukemia (AML); details: cited from earlier work

T1 sequence (P51532 whole entry): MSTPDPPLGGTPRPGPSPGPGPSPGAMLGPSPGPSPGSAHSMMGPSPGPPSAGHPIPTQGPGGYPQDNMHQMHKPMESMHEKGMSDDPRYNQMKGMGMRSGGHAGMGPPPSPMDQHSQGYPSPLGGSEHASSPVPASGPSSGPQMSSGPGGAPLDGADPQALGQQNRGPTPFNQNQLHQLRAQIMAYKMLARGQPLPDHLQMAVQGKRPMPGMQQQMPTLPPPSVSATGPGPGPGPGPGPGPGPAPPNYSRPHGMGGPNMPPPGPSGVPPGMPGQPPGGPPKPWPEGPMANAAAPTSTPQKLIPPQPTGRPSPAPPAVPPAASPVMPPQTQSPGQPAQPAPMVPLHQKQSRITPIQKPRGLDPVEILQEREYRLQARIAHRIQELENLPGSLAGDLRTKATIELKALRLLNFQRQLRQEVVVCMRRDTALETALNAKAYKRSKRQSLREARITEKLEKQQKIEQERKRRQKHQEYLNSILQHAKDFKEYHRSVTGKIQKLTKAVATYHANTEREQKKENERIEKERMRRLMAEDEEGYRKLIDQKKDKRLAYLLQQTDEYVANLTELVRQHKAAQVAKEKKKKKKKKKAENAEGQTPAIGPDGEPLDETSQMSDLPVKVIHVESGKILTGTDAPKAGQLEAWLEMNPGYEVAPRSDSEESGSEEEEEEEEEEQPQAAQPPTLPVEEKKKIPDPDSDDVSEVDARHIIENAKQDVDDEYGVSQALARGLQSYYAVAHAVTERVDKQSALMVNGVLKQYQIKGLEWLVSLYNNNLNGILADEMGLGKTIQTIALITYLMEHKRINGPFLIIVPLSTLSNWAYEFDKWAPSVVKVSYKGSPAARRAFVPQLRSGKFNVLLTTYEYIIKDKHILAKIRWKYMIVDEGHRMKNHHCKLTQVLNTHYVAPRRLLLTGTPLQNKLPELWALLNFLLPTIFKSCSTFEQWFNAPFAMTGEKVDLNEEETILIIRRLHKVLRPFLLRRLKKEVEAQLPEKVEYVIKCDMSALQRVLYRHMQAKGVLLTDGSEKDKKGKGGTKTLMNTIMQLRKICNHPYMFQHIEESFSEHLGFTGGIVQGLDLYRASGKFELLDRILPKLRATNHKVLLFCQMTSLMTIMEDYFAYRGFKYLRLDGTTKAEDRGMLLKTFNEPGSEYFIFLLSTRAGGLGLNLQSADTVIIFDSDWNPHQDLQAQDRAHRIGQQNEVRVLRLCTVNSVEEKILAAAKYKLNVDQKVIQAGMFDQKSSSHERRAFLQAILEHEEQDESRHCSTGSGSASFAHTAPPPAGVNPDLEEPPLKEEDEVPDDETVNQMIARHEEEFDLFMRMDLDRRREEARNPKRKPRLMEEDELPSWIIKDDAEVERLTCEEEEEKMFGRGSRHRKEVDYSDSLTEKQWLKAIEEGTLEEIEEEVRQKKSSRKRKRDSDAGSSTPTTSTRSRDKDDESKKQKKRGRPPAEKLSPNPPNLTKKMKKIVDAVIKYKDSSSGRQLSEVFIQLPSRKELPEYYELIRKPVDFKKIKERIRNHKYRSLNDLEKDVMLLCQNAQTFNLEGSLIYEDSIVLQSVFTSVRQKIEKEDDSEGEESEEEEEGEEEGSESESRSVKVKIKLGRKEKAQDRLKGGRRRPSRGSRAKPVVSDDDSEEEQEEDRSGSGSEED
T2 sequence (P51531 whole entry): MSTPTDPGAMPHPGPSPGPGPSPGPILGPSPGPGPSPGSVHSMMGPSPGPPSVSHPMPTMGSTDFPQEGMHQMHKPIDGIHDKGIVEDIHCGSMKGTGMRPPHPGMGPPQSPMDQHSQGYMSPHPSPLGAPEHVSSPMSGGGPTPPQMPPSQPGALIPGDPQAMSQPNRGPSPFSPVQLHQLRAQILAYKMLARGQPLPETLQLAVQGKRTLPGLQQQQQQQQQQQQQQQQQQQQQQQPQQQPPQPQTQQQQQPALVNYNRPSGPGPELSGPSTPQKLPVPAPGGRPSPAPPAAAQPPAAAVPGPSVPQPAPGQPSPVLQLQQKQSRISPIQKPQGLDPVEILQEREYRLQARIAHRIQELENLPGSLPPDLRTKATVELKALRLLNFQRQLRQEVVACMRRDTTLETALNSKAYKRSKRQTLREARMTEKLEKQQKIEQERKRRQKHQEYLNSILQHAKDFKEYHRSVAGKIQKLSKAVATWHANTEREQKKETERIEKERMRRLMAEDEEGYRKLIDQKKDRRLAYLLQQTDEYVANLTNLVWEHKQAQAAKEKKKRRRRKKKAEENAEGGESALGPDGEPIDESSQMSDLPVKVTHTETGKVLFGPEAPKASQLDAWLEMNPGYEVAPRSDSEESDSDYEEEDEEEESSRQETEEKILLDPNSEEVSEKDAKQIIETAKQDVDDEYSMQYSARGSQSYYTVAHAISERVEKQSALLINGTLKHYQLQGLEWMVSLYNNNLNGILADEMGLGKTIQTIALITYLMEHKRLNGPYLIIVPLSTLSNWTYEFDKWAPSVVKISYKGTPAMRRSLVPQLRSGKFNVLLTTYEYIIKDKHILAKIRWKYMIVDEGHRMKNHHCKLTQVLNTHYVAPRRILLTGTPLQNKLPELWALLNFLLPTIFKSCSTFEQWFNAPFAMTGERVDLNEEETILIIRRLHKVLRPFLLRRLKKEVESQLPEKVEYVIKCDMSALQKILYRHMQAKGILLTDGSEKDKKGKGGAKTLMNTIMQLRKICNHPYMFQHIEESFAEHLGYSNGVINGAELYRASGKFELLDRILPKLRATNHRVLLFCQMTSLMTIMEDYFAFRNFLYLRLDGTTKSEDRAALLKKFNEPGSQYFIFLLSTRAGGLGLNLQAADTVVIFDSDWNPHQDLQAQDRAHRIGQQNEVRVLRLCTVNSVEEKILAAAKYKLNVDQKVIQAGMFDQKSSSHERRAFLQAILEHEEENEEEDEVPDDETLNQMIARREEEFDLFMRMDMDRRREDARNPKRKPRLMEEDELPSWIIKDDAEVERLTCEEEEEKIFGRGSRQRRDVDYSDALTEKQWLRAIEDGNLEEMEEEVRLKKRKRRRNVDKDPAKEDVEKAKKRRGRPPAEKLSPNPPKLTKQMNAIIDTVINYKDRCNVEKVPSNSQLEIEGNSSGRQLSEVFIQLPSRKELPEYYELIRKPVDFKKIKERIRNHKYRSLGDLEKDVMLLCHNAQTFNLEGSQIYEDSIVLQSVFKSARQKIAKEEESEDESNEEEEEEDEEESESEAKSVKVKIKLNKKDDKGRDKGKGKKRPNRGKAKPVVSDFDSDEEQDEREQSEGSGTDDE
His-CRBN, sequence (Q96SW2 whole entry): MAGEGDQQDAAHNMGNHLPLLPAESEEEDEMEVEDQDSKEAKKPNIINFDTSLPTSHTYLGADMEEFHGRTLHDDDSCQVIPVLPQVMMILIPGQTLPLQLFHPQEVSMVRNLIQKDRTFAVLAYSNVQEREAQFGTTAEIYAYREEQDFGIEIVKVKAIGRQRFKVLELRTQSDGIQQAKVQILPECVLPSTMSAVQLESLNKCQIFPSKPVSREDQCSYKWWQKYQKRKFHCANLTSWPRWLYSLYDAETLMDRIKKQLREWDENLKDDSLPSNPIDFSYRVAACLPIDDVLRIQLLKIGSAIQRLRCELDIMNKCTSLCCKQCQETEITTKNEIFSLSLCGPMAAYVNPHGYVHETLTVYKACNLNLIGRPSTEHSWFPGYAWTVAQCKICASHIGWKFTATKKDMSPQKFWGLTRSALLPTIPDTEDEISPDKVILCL

Structure (SMILES)	binding to SMARCA4 [1]	binding to SMARCA2 [2]	binding to CRBN [3]	cleaved PARP expression, indicating apoptosis [4]	IC50 of cell growth ([5]; 10 doses from 10 μM to 1 nM)	cell growth inhibition / cytotoxicity [5]	expression of MLL-AF9 target genes (subset such as MYB and FLT3), RNA-seq heatmap [6]	SMARCA4 degradation [7]	SMARCA2 degradation [8]	anti-proliferative effects [9]	clinical response ([10]; monotherapy)	side effect profile ([10]; treatment of MLLr AML)
O=C1CCC(N2C(=O)c3ccc(NCCCCCCCCOCCc4cccc(N5C[C@H]6C[C@@H]5CN6/C=C/C(=O)c5ccccc5O)c4)cc3C2=O)C(=O)N1 (stereo partly drawn) [S31, 2-(2,6-dioxopiperidin-3-yl)-5-((8-(3-((1R,4R)-5-((E)-3-(2-hydroxyphenyl)-3-oxoprop-1-en-1-yl)-2,5-diazabicyclo[2.2.1]heptan-2-yl)phenethoxy)octyl)amino)isoindoline-1,3-dione]	binds	binds	binds	cleaved PARP expression abundance was observed	low nanomolar range	profound inhibition; also recorded: induces cytotoxicity	could not—or just slightly—affect the gene expression; also recorded: sensitizes MLL-AF9 targets to EPZ5676	degraded; also recorded: degradation was observed	degraded; also recorded: degradation was observed	–	–	–
CC(C)N(C[C@H]1OC(n2cnc3c(N)ncnc32)[C@H](O)[C@@H]1O)C1CC(CCc2nc3cc(C(C)(C)C)ccc3[nH]2)C1 (stereo partly drawn) [EPZ5676, (2R,3R,4S,5R)-2-(6-amino-9H-purin-9-yl)-5-((((1s,3R)-3-(2-(5-(tert-butyl)-1H-benzo[d]imidazol-2-yl)ethyl)cyclobutyl)(isopropyl)amino)methyl)tetrahydrofuran-3,4-diol]	–	–	–	–	–	–	could not—or just slightly—affect the gene expression	–	–	remarkably selective anti-proliferative effects	low effective responses and subsequent relapses	promising side effect profile

Reference: patent US20240335438A1, “TARGETING DOT1L AND SMARCA4/2 FOR THE TREATMENT OF MLLR LEUKEMIA” (DANA-FARBER CANCER INSTITUTE, INC., priority 2021, published 2024)
